Laboratory results from paper PMC10037499, “High-Throughput Screen Reveals the Structure–Activity Relationship of the Antimicrobial Lasso Peptide Ubonodin” (ACS Central Science, 2023).
Like-named read-outs stand apart in the source and are kept apart here. Where a SMILES comes first, the peptide text is derived from it.

Legend:
[1] = test system: E. coli MC1061; experiment: Spot dilution assay of E. coli producing the ubonodin variant from pUboABC; format: cell-based; conditions: variant in pUboABC backbone in E. coli MC1061, induction with 100 μM IPTG, ten-fold serial dilutions, biological duplicates
Experimental: Cultures of E. coli MC1061 transformed with the appropriate plasmids were grown. Aliquots of the cultures were sampled prior to and after induction with 100 μM IPTG, and 10-fold serial dilutions were plated. […]
All cloning was conducted by PCR amplification (using Q5 polymerase), restriction digestion, ligation, (using T4 DNA ligase), and transformation into chemically competent E. coli XL1-Blue. All cloning with a pUboABC backbone was done by plating transformation mixt ures onto Lysogeny Broth (LB) plates supplemented with 100 μg/mL ampicillin and 0.2% w/v glucose, and colonies were inoculated into LB media supplemented with 100 μ g/mL ampicillin and 0.2% w/v glucose to suppress any leaky expression. Cloning for all other plasmid constructs was done by plating transformation mixtures onto Lysogeny Broth (LB) plates supplemented with 100 μ g/ m L ampicillin, and colonies were inoculated into LB media supplemented with 100 μ g/ m L ampicillin.
Plasmids were extracted using Qiagen QIAprep Spin Miniprep Kit and sequence verified using Sanger sequencing. All primer sequences are listed in Table S7, and all plasmid constructs are […]
pUboABC was cloned by amplifying pWC99 with pQE-80 NheI For and pAT8 Nco I Rev.
The amplicon was ligated into pWC99 digested with Nhe I and Nco I. pUboBC was cloned by digesting pUboABC with Nh e I and Nco I and ligating that fragment into pQE-80 digested with Nhe I and Nco I. pUboABC S5H I16P and pUboABCD S5H I16P were cloned with overlap PCR using pWC99 as the template. One fragment was amplified with pQE-80 EcoRI For and S5H I16P Rev v2 and the second fragment was amplified with S5H I16P For v2 and pQE-80 HindII I Rev. […]
All remaining plasmid constructs were cloned with overlap PCR. One fragment was amplified with Xho I For Lib and a mutagenic reverse primer and the second fragment was amplified with NheI Rev Lib and a mutagenic forward primer. The templates and mutagenic […]
The fragments were joined with a second round of PCR and amplified with XhoI For Lib and NheI Rev Lib. Amplicons were ligated into the appropriate plasmid backbone digested with Xho I and Nhe I-HF. The plasmid backbones […]
The appropriate plasmid was transformed into electrocompetent E. coli MC1061, plated onto LB plates supplemented with 100 μ g/ m L ampicillin and 0.2% w/v glucose, and incubated at 30 °C for 16 hours. Colonies were inoculated into LB media supplemented with 100 μ g/ m L ampicillin and 0.2% w/v glucose and grown at 37 °C for 16 hours. These cultures were sub-cultured to an OD600 of 0.02 in 50 mL of LB media supplemented with 100 μg/mL ampicillin in a 250 mL flask. Once the OD600 reached 0.3, a 1 mL aliquot was sampled immediately prior to inducing the cultures with 100 μM isopropyl β-D-1-thiogalactopyranoside (IPTG). The aliquot was washed with Phosphate-Buffered Saline (PBS) two times and ten-fold serial dilutions were spotted onto LB plates supplemented with 100 μ g/ m L ampicillin and 0.2% w/v glucose. For each following timepoint, a 1 mL sample of each culture was withdrawn, washed with PBS two times, and ten- […]
fold serial dilutions were spotted onto LB plates supplemented with 100 μ g/m L ampicillin and 0.2% w/v glucose. Plates were incubated for 16 hours at 37 °C before imaging. […]
250 mL flask. Ten-fold serial dilutions of the culture were plated onto LB plates supplemented with 100 μ g/ m L ampicillin and 0.2% w/v glucose. The cultures were then grown at 37 °C, and once the OD600 reached 0.3, a 1 mL sample of the culture was withdrawn immediately before the cultures were induced with 10 μM or 100 μM IPTG and returned to grow longer. […]
All plates were incubated at 37 °C for 16 hours, after which the number of colonies was counted. Three biological replicates of this assay were done.
Co-Culture of E. coli MC1061 pUboABC and E. coli MC1061 pUboBC pUboABC (0.9 ng) and pUboBC (0.1 ng) were transformed into electrocompetent E. coli MC1061 with a one- hour outgrowth at 37 °C in LB media supplemented with 0.2% w/v glucose. […]

[2] = test system: RNA polymerase (RNAP) in E. coli MC1061; experiment: High-throughput growth-based screen with NGS (enrichment value) for RNA polymerase inhibition; format: cell-based; design: key to Experimental observation (enrichment observed in the screen): Dropout: Many variants inhibit RNAP so strongly that they cannot be detected by NGS after IPTG induction (referred to as dropout variants); conditions: Table S4; variants whose MICs were tested
Experimental: The single mutant library was analyzed by NGS at multiple stages of sample preparation (Figure 2A) to track its evolution throughout the screen. Specifically, the frequency of each possible aa variant was computed at each stage by summing up counts for each distinct translated sequence and dividing by the total number of counts for all variants (eq S1, SI Methods). Since cells expressing an RNAP-inhibiting ubonodin variant will have growth defects relative to cells with a nontoxic variant, RNAP-inhibiting ubonodin variants are expected to decrease in frequency throughout the screen.
First, the naïve library (digested PCR products) was sequenced. These digested PCR products were cloned into the pUboABC backbone and transformed into a recA^– cloning strain. This plasmid library was sequenced again to capture any changes upon transformation of the library into E. coli. The change between the naïve library and the cloning transformation library was minimal (Figure S6A). This plasmid library was transformed into the screening strain MC1061, and the plasmid from resulting colonies was also sequenced. The library in MC1061 was grown up en masse in liquid culture to mid log phase, and a portion of the culture was plated. These colonies were scraped, then the plasmid was isolated and sequenced. Finally, the liquid culture was induced with IPTG, after which a portion of the culture was plated and the plasmid was isolated and sequenced. It is key to note that all samples from liquid cultures were plated prior to sequencing to ensure that only viable cells were sequenced. […] The rationale for sequencing at these five different stages was the possibility that leaky expression of uboA would affect the frequency of active mutants prior to IPTG induction. Indeed, we observed that the frequency of some uboA mutants dropped as soon as they were transformed into the screening strain MC1061 while the frequency of other mutants climbed (Figure 2B).
The behavior of the point variants (i.e., variants with a single aa substitution) was examined by calculating their enrichment values, the base-2 logarithm of the ratio of the variant’s frequency at a specific step of the screen to the variant’s frequency in the cloning transformation library (eq S3, Figure S6). The most relevant enrichment value for ubonodin activity is the comparison between the post-IPTG library and the cloning transformation library (Figure 2A). […] Many variants inhibit RNAP so strongly that they cannot be detected by NGS after IPTG induction (referred to as dropout variants). […] Variants with a stop codon mutation and variants containing an aa substitution at Tyr9 or Tyr27 (positions conserved in MccJ25 and shown to be crucial for RNAP inhibition, see Figure S7)[26] have positive enrichment values (1.2–1.7), serving as quality control for the screen (Figure 3A). Strikingly, 63% of point variants decreased in frequency, indicating a high tolerance to aa substitution. […] The positions with active variants are Asn11 through Ser24 in the loop and Asp3, Ser5, and Ala7 in the ring.
The single mutant and double mutant libraries were transformed into E. coli MC1061. Colonies were resuspended in media and subcultured into a larger culture. Aliquots of the cultures were sampled prior to and after induction with 10 μM IPTG and 100 μM IPTG and plated. After 16 h of incubation, the colonies were resuspended in media and plasmids were miniprepped.
Samples were PCR amplified with barcoded primers and combined such that double mutant library samples were over-represented compared to single mutant library samples to provide sufficient coverage of the larger double mutant library. Samples were sequenced using an Illumina MiSeq Micro 300nt and an Illumina NovaSeq 6000 Sequencing System. Downstream analysis of the data was conducted with Python, MATLAB, and R.
V to reduce genomic DNA contamination. One fragment was amplified with Xho I For Lib and a […]

[3] = test system: B. cenocepacia AU0756
Experimental: We proceeded to test the antimicrobial activity of the selected variants against two clinical isolates of the Bcc, B. cenocepacia AU0756 and B. cenocepacia AU24362, in broth microdilution assays. […] We revisited these measurements using broth microdilution assays following the Clinical & Laboratory Standards Institute (CLSI) standard.
Broth microdilution assays of the ubonodin variants were conducted using B. cenocepacia AU0756 and B. cenocepacia AU24362 with guidelines provided by the Clinical & Laboratory Standards Institute (CLSI).

SMILES	Inhibits Growth [1]	Experimental observation (enrichment observed in the screen) [2]	B. cenocepacia AU0756 MIC [3] [µM]	MIC [3] [µM]	MIC ([3]; broth microdilution, mass basis, strain not named in the sentence (values match AU0756)) [µg/mL]
CC[C@H](C)[C@H](NC(=O)[C@H](Cc1c[nH]cn1)NC(=O)[C@H](CCSC)NC(=O)[C@@H]1CCCN1C(=O)[C@H](CCCNC(=N)N)NC(=O)[C@H](CC(N)=O)NC(=O)[C@H](Cc1ccccc1)NC(=O)[C@H](Cc1ccc(O)cc1)NC(=O)[C@@H]1CCC(=O)NCC(=O)NCC(=O)N[C@@H](CC(=O)O)C(=O)NCC(=O)N[C@@H](CO)C(=O)N[C@@H]([C@@H](C)CC)C(=O)N[C@@H](C)C(=O)N1)C(=O)NCC(=O)N[C@@H](CC(=O)O)C(=O)N[C@@H](Cc1c[nH]c2ccccc12)C(=O)N[C@@H](CCC(N)=O)C(=O)N[C@H](C(=O)N[C@@H](CCSC)C(=O)N[C@@H](CC(=O)O)C(=O)N[C@@H](CO)C(=O)NCC(=O)N[C@@H](Cc1ccc(O)cc1)C(=O)N[C@@H](Cc1ccc(O)cc1)C(=O)NCC(=O)O)[C@@H](C)CC [H17G] (HELM PEPTIDE1{G.G.D.G.S.I.A.E.Y.F.N.R.P.M.H.I.G.D.W.Q.I.M.D.S.G.Y.Y.G}$PEPTIDE1,PEPTIDE1,1:R1-8:R3$$$V2.0)	Yes	-6.5	0.125 to 0.25	0.125 to 0.25	0.4 to 0.8
CC[C@H](C)[C@@H]1NC(=O)[C@H](CO)NC(=O)CNC(=O)[C@H](CC(=O)O)NC(=O)CNC(=O)CNC(=O)CC[C@@H](C(=O)N[C@@H](Cc2ccc(O)cc2)C(=O)N[C@@H](Cc2ccccc2)C(=O)N[C@@H](CC(N)=O)C(=O)N[C@@H](CCCNC(=N)N)C(=O)N2CCC[C@H]2C(=O)N[C@@H](CCSC)C(=O)N[C@@H](Cc2c[nH]cn2)C(=O)N[C@@H](CC(=O)O)C(=O)N[C@@H](Cc2c[nH]cn2)C(=O)N[C@@H](CC(=O)O)C(=O)N[C@@H](Cc2c[nH]c3ccccc23)C(=O)N[C@@H](CCC(N)=O)C(=O)N[C@H](C(=O)N[C@@H](CCSC)C(=O)N[C@@H](CC(=O)O)C(=O)N[C@@H](CO)C(=O)NCC(=O)N[C@@H](Cc2ccc(O)cc2)C(=O)N[C@@H](Cc2ccc(O)cc2)C(=O)NCC(=O)O)[C@@H](C)CC)NC(=O)[C@H](C)NC1=O [I16D] (HELM PEPTIDE1{G.G.D.G.S.I.A.E.Y.F.N.R.P.M.H.D.H.D.W.Q.I.M.D.S.G.Y.Y.G}$PEPTIDE1,PEPTIDE1,1:R1-8:R3$$$V2.0)	Yes	-6.2	0.5 to 2	–	–
CC[C@H](C)[C@@H]1NC(=O)[C@H](CO)NC(=O)CNC(=O)[C@H](CC(=O)O)NC(=O)CNC(=O)CNC(=O)CC[C@@H](C(=O)N[C@@H](Cc2ccc(O)cc2)C(=O)N[C@@H](Cc2ccccc2)C(=O)N[C@@H](CC(N)=O)C(=O)N[C@@H](CCCNC(=N)N)C(=O)N2CCC[C@H]2C(=O)N[C@@H](CCSC)C(=O)N[C@@H](Cc2c[nH]cn2)C(=O)N[C@@H](CCC(=O)O)C(=O)N[C@@H](Cc2c[nH]cn2)C(=O)N[C@@H](CC(=O)O)C(=O)N[C@@H](Cc2c[nH]c3ccccc23)C(=O)N[C@@H](CCC(N)=O)C(=O)N[C@H](C(=O)N[C@@H](CCSC)C(=O)N[C@@H](C)C(=O)N[C@@H](CO)C(=O)NCC(=O)N[C@@H](Cc2ccc(O)cc2)C(=O)N[C@@H](Cc2ccc(O)cc2)C(=O)NCC(=O)O)[C@@H](C)CC)NC(=O)[C@H](C)NC1=O [I16E D23A] (HELM PEPTIDE1{G.G.D.G.S.I.A.E.Y.F.N.R.P.M.H.E.H.D.W.Q.I.M.A.S.G.Y.Y.G}$PEPTIDE1,PEPTIDE1,1:R1-8:R3$$$V2.0)	Yes	Dropout	2 to 8	–	–
CC[C@H](C)[C@@H]1NC(=O)[C@H](CO)NC(=O)CNC(=O)[C@H](CC(=O)O)NC(=O)CNC(=O)CNC(=O)CC[C@@H](C(=O)N[C@@H](Cc2ccc(O)cc2)C(=O)N[C@@H](Cc2ccccc2)C(=O)N[C@@H](CC(N)=O)C(=O)N[C@@H](CCCNC(=N)N)C(=O)N2CCC[C@H]2C(=O)N[C@@H](CCSC)C(=O)N[C@@H](Cc2c[nH]cn2)C(=O)N[C@@H](CCC(=O)O)C(=O)N[C@@H](Cc2c[nH]cn2)C(=O)N[C@@H](CC(=O)O)C(=O)N[C@@H](Cc2c[nH]c3ccccc23)C(=O)N[C@@H](CCC(N)=O)C(=O)N[C@H](C(=O)N[C@@H](CCSC)C(=O)N[C@@H](CC(=O)O)C(=O)N[C@@H](CO)C(=O)NCC(=O)N[C@@H](Cc2ccc(O)cc2)C(=O)N[C@@H](Cc2ccc(O)cc2)C(=O)NCC(=O)O)[C@@H](C)CC)NC(=O)[C@H](C)NC1=O [I16E] (HELM PEPTIDE1{G.G.D.G.S.I.A.E.Y.F.N.R.P.M.H.E.H.D.W.Q.I.M.D.S.G.Y.Y.G}$PEPTIDE1,PEPTIDE1,1:R1-8:R3$$$V2.0)	Yes	-7.5	0.5 to 1	–	–
